Assays:
Experiment in all cases: Post-emergence application in field trials, herbicidal activity (damage scale 0 to 100%)
Assay type in all cases: in vivo
[1] = tested on: Echinochloa crus-galli (ECHCG)
Description: (§1) In the examples below, using the method of S. R. Colby (1967) “Calculating synergistic and antagonistic responses of herbicide combinations”, Weeds 15, p. 22ff., the value E, which is expected if the activity of the individual active compounds is only additive, was calculated:
(§2) [formula] • wherein • X=percent activity using active herbicide A at an application rate a; • Y=percent activity using active herbicide B (e.g. pyroxasulfone) at an application rate b; • E=expected activity (in %) by A+B at application rates a+b.
(§3) If the value found experimentally is higher than the value E calculated according to Colby, a synergistic effect is present.
(§4) On field test sites, natural weed infestation or seeded weeds were treated post-emergence of the weeds.
(§5) In the field trials, the weeds were treated as indicated below.
(§6) In the following experiments, the herbicidal activity for the individual herbicidal compositions (solo and mixture applications) was assessed at the indicated days after treatment (DAT). The assessments for the damage on undesired weeds caused by the composition was carried out using a scale from 0 to 100%, compared to the untreated control plants. Here, 0 means no damage and 100 means complete destruction of the plants.
Herbicide A-1 (50 g/l) and pyroxasulfone (85% WG) were, together with addition of 0.5% MSO (methylated seed oil) as adjuvant, formulated in water as distribution medium (water volume 200 l/ha) and sprayed with commercial flat fan nozzles.

[2] = tested on: Digitaria sanguinalis (DIGSA)
Description: as §1, §2
(§7) For 3-component mixtures the synergistic response was calculated as described in: Ferry, Nancy; Stanley, Bruce H.; and Armel, Gregory (2005). “DESIGN AND ANALYSIS OF BIOLOGICAL ASSAYS OF MIXTURES,” Conference on Applied Statistics in Agriculture. https://doi.org/10.4148/2475-7772.1133. According to this publication, the Colby calculation can be generalized to a third mixing partner, Z, employing the following formula: […]
as §3, §4, §5, §6
(§8) Herbicide A-1 (342 g/l) and pyroxasulfone (500 g/l) were, together with addition of 0.25 v/v % MSO (methylated seed oil) as adjuvant, formulated in 200 l/ha water as distribution medium and sprayed with commercial flat fan nozzles.
(§9) Herbicide A-1 (342 g/l), pyroxasulfone (500 g/l) and trifludimoxazin (500 g/l) were, together with addition of 0.25 v/v % MSO (methylated seed oil) as adjuvant, formulated in 200 l/ha water as distribution medium and sprayed with commercial flat fan nozzles.
(§10) Herbicide A-1 (342 g/I), pyroxasulfone (500 g/l) and glyphosate-isopropylammonium (356 g/l) were, together with addition of 0.25 v/v % MSO (methylated seed oil) as adjuvant, formulated in 200 l/ha water as distribution medium and sprayed with commercial flat fan nozzles.
(§11) Herbicide A-1 (342 g/l), pyroxasulfone (500 g/l) and glufosinate-P-ammonium (211 g/l) were, together with addition of 0.25 v/v % MSO (methylated seed oil) as adjuvant, formulated in 200 l/ha water as distribution medium and sprayed with commercial flat fan nozzles.
(§12) Herbicide A-1 (342 g/l), pyroxasulfone (500 g/l) and 2,4-D-choline (456 g/l) were, together with addition of 0.25 v/v % MSO (methylated seed oil) as adjuvant, formulated in 200 l/ha water as distribution medium and sprayed with commercial flat fan nozzles.

[3] = tested on: Setaria verticillata (SETVE); conditions: stage 21-23, height 8-16 cm
Description: as §1, §2, §7, §3, §4, §5, §6, §8, §9, §10, §11, §12

Measured: % Herbicidal activity

CCOC(=O)COc1ccccc1Oc1nc(-n2c(=O)cc(C(F)(F)F)n(C)c2=O)c(F)cc1Cl [A-1, ethyl 2-[2-[[3-chloro-5-fluoro-6-[3-methyl-2,6-dioxo-4-(trifluoromethyl)pyrimidin-1-yl]-2-pyridyl]oxy]phenoxy]acetate]
65%: [2]; 42 DAT, stage 22, height 10-15 cm, g ai/ha A-1 12.5, B 70 | [3]; 21 DAT, g ai/ha A-1 18, B 90, C-12 252
85%: [2]; 7 DAT, stage 22, height 10-15 cm, g ai/ha A-1 18, B 70, C-4 12.5 | [2]; 7 DAT, stage 22, height 10-15 cm, g ai/ha A-1 18, B 70, C-12 252 | [2]; 7 DAT, stage 22, height 10-15 cm, g ai/ha A-1 18, B 90, C-4 12.5 | [2]; 7 DAT, stage 22, height 10-15 cm, g ai/ha A-1 18, B 90, C-12 252 | [2]; 21 DAT, stage 22, height 10-15 cm, g ai/ha A-1 18, B 70, C-12 252 | [2]; 21 DAT, stage 22, height 10-15 cm, g ai/ha A-1 18, B 90, C-12 252
60%: [1]; ECHCG, height 20-25 cm, A-1 25 g ai/ha, 21 DAT, Table 2.3 | [2]; 42 DAT, stage 22, height 10-15 cm, g ai/ha A-1 12.5, B 70, C-4 12.5 | [2]; Table 8.4, 42 DAT, stage 22, height 10-15 cm, g ai/ha A-1 18, B 70, C-12 1066
75%: [3]; 7 DAT, g ai/ha A-1 18, B 70, C-8 840 | [3]; 7 DAT, g ai/ha A-1 18, B 90, C-8 840
80%: [2]; 7 DAT, stage 22, height 10-15 cm, g ai/ha A-1 12.5, B 70, C-4 12.5 | [2]; 7 DAT, stage 22, height 10-15 cm, g ai/ha A-1 18, B 70, C-8 840 | [2]; 7 DAT, stage 22, height 10-15 cm, g ai/ha A-1 18, B 90, C-8 840 | [2]; 21 DAT, stage 22, height 10-15 cm, g ai/ha A-1 18, B 70, C-4 12.5 | [2]; 21 DAT, stage 22, height 10-15 cm, g ai/ha A-1 18, B 90, C-4 12.5 | [2]; 42 DAT, stage 22, height 10-15 cm, g ai/ha A-1 18, B 70 | [2]; 42 DAT, stage 22, height 10-15 cm, g ai/ha A-1 18, B 90 | [2]; DIGSA, growth stage 22, height 10-15 cm, A-1 12.5 g ai/ha, 7 DAT, Table 4.1 | [2]; DIGSA, growth stage 22, height 10-15 cm, A-1 18 g ai/ha, 7 DAT, Table 4.1 | [2]; DIGSA, growth stage 22, height 10-15 cm, A-1 18 g ai/ha, 21 DAT, Table 4.3 | [2]; Table 8.1, 7 DAT, stage 22, height 10-15 cm, g ai/ha A-1 18, B 70, C-12 1066 | [2]; Table 8.2, 21 DAT, stage 22, height 10-15 cm, g ai/ha A-1 18, B 70, C-12 1066 | [3]; 7 DAT, g ai/ha A-1 18, B 90, C-4 12.5
30%: [1]; 7 DAT, stage 23-30, height 15-20 cm, g ai/ha A-1 12.5, B 70, C-12 252 | [1]; 21 DAT, stage 23-30, height 15-20 cm, g ai/ha A-1 12.5, B 70, C-12 252 | [1]; 28 DAT, stage 23-30, height 15-20 cm, g ai/ha A-1 12.5, B 70, C-12 252 | [1]; Table 8.2, 21 DAT, stage 23-30, height 15-20 cm, g ai/ha A-1 18, B 70, C-12 1066 | [1]; Table 8.2, 21 DAT, stage 23-30, height 15-20 cm, g ai/ha A-1 18, B 90, C-12 1066 | [1]; Table 8.3, 28 DAT, stage 23-30, height 15-20 cm, g ai/ha A-1 18, B 70, C-12 1066 | [1]; Table 8.3, 28 DAT, stage 23-30, height 15-20 cm, g ai/ha A-1 18, B 90, C-12 1066
50%: [3]; 42 DAT, g ai/ha A-1 12.5, B 70 | [3]; 42 DAT, g ai/ha A-1 12.5, B 70, C-12 252
70%: [2]; 21 DAT, stage 22, height 10-15 cm, g ai/ha A-1 12.5, B 70, C-4 12.5 | [2]; 42 DAT, stage 22, height 10-15 cm, g ai/ha A-1 18, B 70, C-4 12.5 | [2]; 42 DAT, stage 22, height 10-15 cm, g ai/ha A-1 18, B 70, C-12 252 | [2]; 42 DAT, stage 22, height 10-15 cm, g ai/ha A-1 18, B 90, C-4 12.5 | [2]; 42 DAT, stage 22, height 10-15 cm, g ai/ha A-1 18, B 90, C-12 252 | [2]; DIGSA, growth stage 22, height 10-15 cm, A-1 12.5 g ai/ha, 21 DAT, Table 4.3 | [3]; 7 DAT, g ai/ha A-1 18, B 70, C-12 252 | [3]; 7 DAT, g ai/ha A-1 18, B 90, C-12 252 | [3]; 42 DAT, g ai/ha A-1 18, B 70

Source: US12690589B2, “Herbicidal compositions comprising pyroxasulfone” (BASF SE, priority 2024, dated 2026)
